This is an account of results in the supplement of paper PMC10307832.

Common to all, as to experiment: relative viability (nuclei count vs DMSO), 5 days (fraction); higher = more cells survive
Compound in the assay “Mirin + Phenformin”: N=C1NC(=O)/C(=C/c2ccc(O)cc2)S1 [Mirin] + N=C(N)NC(=N)NCCc1ccccc1 [Phenformin] (partner 250 µM)
The method, boiled down:
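Relative viability equals treated-well nuclei counts divided by vehicle-well nuclei counts. Counts came from 4× images of lung cancer cell lines grown in 1536-well plates for 5 days after pin-tool dosing on the day after seeding. Dosing used one drug alone or a fixed anchor-drug dose plus five library-drug doses (not always all listed) in √10 steps, and values are medians of duplicate plates.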

Compound in another assay: N=C1NC(=O)/C(=C/c2ccc(O)cc2)S1 [Mirin]
The essentials: (§1)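 MetaXpress counted nuclei in 4× images of lung cancer cell lines that had been fixed, permeabilised and Hoechst-stained in one step. Before that, cells in 1536-well plates were kept overnight at 37 °C, pinned with five √10-spaced library-drug doses on vehicle-anchored plates, and cultured 5 days without medium change. Viability takes treated-well nuclei over vehicle-well nuclei and uses the median across plates. Plates were accepted only at control CV below 25% and at least one doubling.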

Compound in assay [1]: CCC1=CN=CN=C1N2CCN(CC2)CC3=NC4=C(N3)C=C(C=C4)C(F)(F)F
The method, boiled down:
as §1

Compound in assay [2]: CCn1c(-c2nonc2N)nc2cnc(Oc3cccc(NC(=O)c4ccc(OCCN5CCOCC5)cc4)c3)cc21
The essentials:
as §1

In the case of UMC-11, the relative viability stood at 0.351 with Mirin + Phenformin (first compound 0.25 µM); 0.272 with Mirin + Phenformin (first compound 0.7906 µM); 0.334 in the assay with Mirin + Phenformin (first compound 2.5 µM); 0.32 with Mirin + Phenformin (first compound 7.906 µM); 0.236 with Mirin + Phenformin (first compound 25 µM); 1.01 in the assay with Mirin (0.25 µM). Further, the relative viability with Mirin (0.7906 µM) was determined as 0.657; in the assay with Mirin (2.5 µM), 1.02; with Mirin (7.906 µM), 0.803; with Mirin (25 µM) it was 0.608; in assay [1] (0.04 µM) it was 0.925; in assay [1] (0.1265 µM) it was 0.948. Further, the relative viability in assay [1] (0.4 µM) was 0.933; in assay [1] (1.265 µM), 0.838; in assay [1] (4 µM) it was 0.888; in assay [2] (0.04 µM), 0.965; in assay [2] (0.1265 µM), 0.85; in assay [2] (0.4 µM), 0.481. For the same cell line, the relative viability in assay [2] (1.265 µM) worked out at 0.275; in assay [2] (4 µM), 0.236.
